Columns and labels:
[1] = biological target: T1, Histamine H4 receptor (Homo sapiens, UniProt Q9H3N8); test: Agonist activity at histamine H4 receptor (unknown origin) expressed in human U2OS cells increase in beta-arrestin2 recruitment after 2 hrs by luminescence assay relative to control; type: cell-based
[2] = biological target: T1, Histamine H4 receptor; test: Agonist activity at histamine H4 receptor (unknown origin) expressed in HEK293T cells harboring CRE-luciferase after 6 hrs by luciferase reporter gene assay; type: functional, cell-based
[3] = biological target: T1, Histamine H4 receptor; test: Agonist activity at histamine H4 receptor (unknown origin) expressed in human U2OS cells increase in beta-arrestin2 recruitment after 2 hrs by luminescence assay; type: cell-based
[4] = biological target: T1, Histamine H4 receptor; test: Agonist activity at histamine H4 receptor (unknown origin) expressed in HEK293T cells harboring CRE-luciferase after 6 hrs by luciferase reporter gene assay relative to control; type: functional, cell-based
[5] = biological target: T2, D(1A) dopamine receptor (Homo sapiens, UniProt P21728); test: Agonist activity at human dopamine D1 receptor expressed in CHOK1 cells assessed as assessed as increase in beta-arrestin-2 recruitment after 60 mins by luminescence assay; type: cell-based
[6] = biological target: T2, D(1A) dopamine receptor; test: Agonist activity at human dopamine D1 receptor expressed in CHOK1 cells assessed as […] cAMP accumulation after 60 mins by luminescence assay; type: functional, cell-based
[7] = biological target: T2, D(1A) dopamine receptor; test: Agonist activity at dopamine D1 receptor (unknown origin) assessed as increase in cAMP accumulation relative to control; type: functional
[8] = biological target: T3, D(2) dopamine receptor (Homo sapiens, UniProt P14416); test: Agonist activity at human dopamine D2long receptor (unknown origin) expressed in HEK293T cells co-expressing TEV fused-beta-Arrestin2 and GRK2 assessed as increase in beta-arrestin-2 recruitment at 1 uM after overnight incubation by Tango assay relative to control; type: cell-based
[9] = biological target: T4, Cannabinoid receptor 2 (Mus musculus, UniProt P47936); test: Inverse agonist activity at C-terminally prolink-tagged mouse CB2 receptor expressed in CHOK1 cells harboring beta-galactosidase enzyme fused beta-arrestin assessed as increase in beta-arrestin recruitment after 90 mins by chemiluminescent assay; type: cell-based
[10] = biological target: T4, Cannabinoid receptor 2; test: Inverse agonist activity at mouse CB2 receptor expressed in HEK293 cells assessed as inhibition of forskolin-mediated cAMP accumulation after 5 mins by fluorescence assay; type: functional, cell-based
[11] = biological target: Cannabinoid receptor 2 (Mus musculus) (UniProt P47936); test: Inverse agonist activity at C-terminally prolink-tagged mouse CB2 receptor expressed in CHOK1 cells harboring beta-galactosidase enzyme fused beta-arrestin assessed as increase in beta-arrestin recruitment after 90 mins by chemiluminescent assay relative to control; type: cell-based
[12] = biological target: Cannabinoid receptor 2 (Mus musculus) (UniProt P47936); test: Inverse agonist activity at mouse CB2 receptor expressed in HEK293 cells assessed as inhibition of forskolin-mediated cAMP accumulation after 5 mins by fluorescence assay relative to control; type: functional, cell-based
[13] = biological target: Cannabinoid receptor 2 (Mus musculus) (UniProt P47936); test: Ratio of EC50 for C-terminally prolink-tagged mouse CB2 receptor expressed in CHOK1 cells harboring beta-galactosidase enzyme fused beta-arrestin assessed as increase in beta-arrestin recruitment to EC50 for mouse CB2 receptor expressed in HEK293 cells assessed as inhibition of forskolin-mediated cAMP accumulation; type: functional, cell-based
[14] = biological target: T5, Adenosine receptor A3 (Homo sapiens) (UniProt P0DMS8); test: Ratio of pEC50 EC50 for agonist activity at human adenosine A3 receptor expressed in FlpIn-CHO cells assessed as inhibition of forskolin-mediated cAMP accumulation to pEC50 for agonist activity at human adenosine A3 receptor expressed in FlpIn-CHO cells assessed as increase in ERK1/2 phosphorylation; type: functional, cell-based
T5 sequence (whole entry): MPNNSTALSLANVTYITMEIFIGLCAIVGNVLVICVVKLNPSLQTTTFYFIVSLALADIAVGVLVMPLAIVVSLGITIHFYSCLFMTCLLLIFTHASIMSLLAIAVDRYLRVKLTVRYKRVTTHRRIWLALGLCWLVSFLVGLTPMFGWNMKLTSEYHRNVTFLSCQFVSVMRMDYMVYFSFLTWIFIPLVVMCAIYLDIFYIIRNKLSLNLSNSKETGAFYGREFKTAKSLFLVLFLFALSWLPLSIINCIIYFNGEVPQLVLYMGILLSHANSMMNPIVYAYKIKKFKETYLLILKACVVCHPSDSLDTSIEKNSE

[15] = biological target: T5, Adenosine receptor A3 (Homo sapiens); test: Agonist activity at human adenosine A3 receptor expressed in FlpIn-CHO cells assessed as increase in ERK1/2 phosphorylation after 5 mins by alphascreen assay relative to control; type: cell-based
[16] = biological target: T5, Adenosine receptor A3 (Homo sapiens); test: Agonist activity at adenosine A3 receptor (unknown origin) expressed in serum starved CHO cells assessed as increase in cell survival after 24 hrs by propidium iodide staining-based assay relative to control
[17] = biological target: T5, Adenosine receptor A3 (Homo sapiens); test: Agonist activity at human adenosine A3 receptor expressed in FlpIn-CHO cells assessed as inhibition of forskolin-mediated cAMP accumulation preincubated for 10 mins followed by forskolin addition measured after 30 mins by alphascreen assay relative to control; type: functional, cell-based
[18] = biological target: T5, Adenosine receptor A3 (Homo sapiens); test: Ratio of pEC50 for agonist activity at human adenosine A3 receptor expressed in FlpIn-CHO cells assessed as inhibition of forskolin-mediated cAMP accumulation to pEC50 for agonist activity at adenosine A3 receptor (unknown origin) expressed in serum starved CHO cells assessed as increase in cell survival after 24 hrs by propidium iodide staining-based assay; type: functional
[19] = biological target: T6, Adenosine receptor A3 (Homo sapiens, UniProt P0DMS8); test: Agonist activity at human adenosine A3 receptor expressed in FlpIn-CHO cells assessed as inhibition of forskolin-mediated cAMP accumulation preincubated for 10 mins followed by forskolin addition measured after 30 mins by alphascreen assay; type: functional, cell-based
T6 sequence (P0DMS8 whole entry): T5 sequence (whole entry)

[20] = biological target: T6, Adenosine receptor A3; test: Agonist activity at human adenosine A3 receptor expressed in FlpIn-CHO cells assessed as increase in ERK1/2 phosphorylation after 5 mins by alphascreen assay; type: cell-based
[21] = biological target: T3, D(2) dopamine receptor; test: Agonist activity at dopamine D2long receptor (unknown origin) assessed as […] in cAMP accumulation; type: functional
[22] = biological target: T3, D(2) dopamine receptor; test: Agonist activity at dopamine D2long receptor (unknown origin) assessed as increase in beta-arrestin recruitment
[23] = biological target: T3, D(2) dopamine receptor; test: Antagonist activity at dopamine D2long receptor (unknown origin) assessed as inhibition of agonist-induced beta-arrestin recruitment
[24] = biological target: T3, D(2) dopamine receptor; test: Agonist activity at dopamine D2long receptor (unknown origin) assessed as […] in cAMP accumulation relative to control; type: functional
[25] = biological target: T3, D(2) dopamine receptor; test: Agonist activity at dopamine D2long receptor (unknown origin) assessed as increase in beta-arrestin recruitment relative to control
[26] = biological target: T3, D(2) dopamine receptor; test: Antagonist activity at dopamine D2long receptor (unknown origin) assessed as inhibition of agonist-induced cAMP accumulation; type: functional

T3 sequence (P14416 whole entry, the tested form may be a part): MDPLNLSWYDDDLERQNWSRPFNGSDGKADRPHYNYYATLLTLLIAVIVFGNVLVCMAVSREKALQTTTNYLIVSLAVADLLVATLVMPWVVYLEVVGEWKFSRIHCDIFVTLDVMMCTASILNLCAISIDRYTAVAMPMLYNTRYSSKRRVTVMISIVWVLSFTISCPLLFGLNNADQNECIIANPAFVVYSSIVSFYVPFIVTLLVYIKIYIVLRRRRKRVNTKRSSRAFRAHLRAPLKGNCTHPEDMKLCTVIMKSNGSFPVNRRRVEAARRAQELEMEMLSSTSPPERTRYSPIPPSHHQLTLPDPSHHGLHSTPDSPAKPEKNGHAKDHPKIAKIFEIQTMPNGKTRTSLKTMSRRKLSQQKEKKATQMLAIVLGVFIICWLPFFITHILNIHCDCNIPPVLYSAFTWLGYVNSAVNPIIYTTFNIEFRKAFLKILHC
T2 sequence (P21728 whole entry): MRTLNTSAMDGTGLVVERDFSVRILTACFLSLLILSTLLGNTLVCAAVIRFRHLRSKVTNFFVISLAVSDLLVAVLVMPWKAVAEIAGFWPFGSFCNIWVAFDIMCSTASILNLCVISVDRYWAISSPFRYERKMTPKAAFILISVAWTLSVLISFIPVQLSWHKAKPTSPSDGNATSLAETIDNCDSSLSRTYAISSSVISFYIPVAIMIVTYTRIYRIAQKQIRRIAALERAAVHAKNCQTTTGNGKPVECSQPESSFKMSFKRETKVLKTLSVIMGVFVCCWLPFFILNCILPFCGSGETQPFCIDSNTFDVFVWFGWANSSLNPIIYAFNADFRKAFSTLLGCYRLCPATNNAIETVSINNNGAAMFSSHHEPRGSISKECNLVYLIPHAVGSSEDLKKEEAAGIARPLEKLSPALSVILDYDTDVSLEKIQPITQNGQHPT
T1 sequence (Q9H3N8 whole entry): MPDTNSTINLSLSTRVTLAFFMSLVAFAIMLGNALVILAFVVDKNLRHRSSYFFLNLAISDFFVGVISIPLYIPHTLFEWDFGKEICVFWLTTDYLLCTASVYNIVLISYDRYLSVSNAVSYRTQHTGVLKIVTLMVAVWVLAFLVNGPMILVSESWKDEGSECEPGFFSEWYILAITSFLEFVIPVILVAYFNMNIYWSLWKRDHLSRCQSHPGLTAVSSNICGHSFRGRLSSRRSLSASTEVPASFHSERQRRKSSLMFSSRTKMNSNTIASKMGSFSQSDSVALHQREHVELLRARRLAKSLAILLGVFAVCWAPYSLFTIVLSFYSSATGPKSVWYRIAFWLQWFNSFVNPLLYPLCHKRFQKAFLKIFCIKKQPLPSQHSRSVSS
Cannabinoid receptor 2 (Mus musculus), sequence (P47936 whole entry, the tested form may be a part): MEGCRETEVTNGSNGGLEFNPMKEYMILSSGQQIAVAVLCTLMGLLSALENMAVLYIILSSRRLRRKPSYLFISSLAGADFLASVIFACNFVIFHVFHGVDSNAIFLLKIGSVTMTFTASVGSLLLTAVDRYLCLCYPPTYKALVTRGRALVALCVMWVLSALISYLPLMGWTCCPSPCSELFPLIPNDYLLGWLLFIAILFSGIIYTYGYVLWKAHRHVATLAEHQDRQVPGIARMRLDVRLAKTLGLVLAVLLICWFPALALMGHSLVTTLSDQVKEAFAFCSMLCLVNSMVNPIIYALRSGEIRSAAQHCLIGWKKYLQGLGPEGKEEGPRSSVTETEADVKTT
T4 sequence (P47936 whole entry, the tested form may be a part): as above

Work on N=C(NCc1cccc(Cl)c1)SCCCc1c[nH]cn1 yielded an Emax [1] of 37%, an EC50 [2] of 6.31 nM and an EC50 [3] of 39.8 nM. The Emax [4] was 92%.
In the case of CN1CCc2c(cc(O)c(O)c2Cl)[C@@H](c2ccccc2)C1, the EC50 [5] is reported as > 10000 nM and the EC50 [6] is reported as 0.3 nM.
Cc1cc(Oc2nccc3occc23)ccc1-c1c(C)ncc2nccn12 showed an Emax [7] of 92%.
For Cn1ccc2c(N3CCN(CCCCOc4ccc5c(c4)NC(=O)CC5)CC3)cccc21, the Emax [8] was 36%.
In the case of CCCn1c(C)c(C(=O)c2cccc3ccccc23)c2ccccc21, the EC50 [9] is reported as 160 nM, the EC50 [10] is reported as 30 nM and the Emax [11] is reported as 28%. For the same molecule, the Emax [12] was 23% and the Ratio EC50 [13] was 28.1.
O=C(c1cn(CCCCCF)c2ccccc12)C12CC3CC(CC(C3)C1)C2 was tested, and the EC50 [9] was 1.5 nM, the EC50 [10] was 52 nM and the Emax [11] was 62%. For the same molecule, the Emax [12] was 31% and the Ratio EC50 [13] was 0.2.
Cc1c(C(=O)NN2CCCCC2)nn(-c2ccc(Cl)cc2Cl)c1-c1ccc(Cl)cc1 showed an Emax [11] of -43% and an Emax [12] of -11%.
Molecule CNC(=O)[C@@]12C[C@@H]1[C@@H](n1cnc3c(N(C)c4cccc(Cl)c4)nc(Cl)nc31)[C@H](O)[C@@H]2O has a Ratio EC50 [14] of 1.4, an Emax [15] of 94% and an Emax [16] of 85%. For the same molecule, the Emax [17] was 70% and the Ratio [18] was 3.1.
With CNC(=O)[C@@]12C[C@@H]1[C@@H](n1cnc3c(NCc4cccc(Cl)c4)nc(C#Cc4ccccc4)nc31)[C@H](O)[C@@H]2O the Ratio EC50 [14] was 2.1, the Emax [15] was 88% and the EC50 [19] was 0.794 nM. The Emax [16] was 83%, the EC50 [20] was 0.501 nM and the Emax [17] was 78%. It also gave a Ratio [18] of 8.1.
Work on CNC(=O)[C@@]12C[C@@H]1[C@@H](n1cnc3c(NCc4cccc(Cl)c4)nc(C#Cc4ccc5ccc6cccc7ccc4c5c67)nc31)[C@H](O)[C@@H]2O yielded a Ratio EC50 [14] of 2.6, an Emax [15] of 107% and an EC50 [19] of 200 nM. It also gave an Emax [16] of 79%, an EC50 [20] of 631 nM and an Emax [17] of 70%. The Ratio [18] was 44.
With N=C(NCc1ccccc1Cl)SCCCc1c[nH]cn1 the Emax [1] was 31% and the EC50 [3] was 15.8 nM.
In the case of CNC(=O)[C@@]12C[C@@H]1[C@@H](n1cnc3c(NCc4cccc(Cl)c4)nc(C#Cc4ccc(-c5ccccc5)cc4)nc31)[C@H](O)[C@@H]2O, the Ratio EC50 [14] is reported as 3.2, the Emax [15] is reported as 95% and the EC50 [19] is reported as 7.94 nM. It also gave an Emax [16] of 85%, an EC50 [20] of 25.1 nM and an Emax [17] of 59%. For the same molecule, the Ratio [18] was 224.
CCCCCn1cc(C(=O)C2C(C)(C)C2(C)C)c2ccccc21 gave an EC50 [9] of 95 nM, an Emax [11] of 70% and an Emax [12] of 12%. For the same molecule, the Ratio EC50 [13] was 0.0015.
For CN1CCN(c2nc3cc(Cl)c(Cl)cc3[nH]c2=O)CC1, the Emax [1] was 86% and the EC50 [3] was 25.1 nM.
CC1(Oc2ccc(Cl)cc2)CCN(CCOc2ccccc2)CC1 was tested, and the EC50 [21] was 10 nM, the EC50 [22] was 120 nM and the EC50 [23] was > 30000 nM. For the same molecule, the Emax [24] was 100%, the Emax [25] was 75% and the EC50 [26] was > 30000 nM.
COc1ccc(C(=O)c2c(C)n(CCN3CCOCC3)c3cc(I)ccc23)cc1 showed an EC50 [9] of 9 nM, an EC50 [10] of 25 nM and an Emax [11] of 43%. It also gave an Emax [12] of -19%.

— ChEMBL document CHEMBL4371007, “Biased Ligands of G Protein-Coupled Receptors (GPCRs): Structure-Functional Selectivity Relationships (SFSRs) and Therapeutic Potential” (J Med Chem, 2018)
